In article PMC11024016 (Pharmaceutical Research, 2024):

Legend:
[1] = Maximum tolerated dose of TPT in mice; conditions: mouse, in vivo, intravenous, 5 consecutive days, authors' previous study (data not shown)
[2] = system: Ser139-phosphorylated human H2AX (γhH2AX) in the tumor; experiment: DNA damage in tumor (γH2AX) of ES-2 tumor-bearing mice; format: in vivo; conditions: TPT 2 mg/kg/day for 5 consecutive days
Description: Mice in the TPT group were euthanized at 3 and 24 h after each dosing and 3, 5, and 7 days after the last dosing (n = 3). Samples were also harvested at 0.5 h after the first and last TPT dose (n = 3). Mice in the vehicle control group were administered sucrose/histidine buffer intravenously and were euthanized at 3 h, 3, 7, and 11 days post-dosing (n = 2 or 3). The levels of Ser139-phosphorylated human H2AX (γhH2AX) and total hH2AX in the tumor, as well as Ser139-phosphorylated mouse H2AX (γmH2AX) and total mH2AX in mouse bone marrow, were quantified using a previously established method.

[3] = Pharmacokinetics of unencapsulated topotecan in plasma, tumor and BM-ISF of ES-2 tumor bearing mice; format: in vivo, BALB/c nude mice; conditions: for AUC(0-inf) / Cmax / MRT / half-life: BALB/c nude, mouse, iv
Description: (§1) Sucrose/histidine buffer and saline (Otsuka Pharmaceutical Factory, Tokushima, Japan) were used as the diluent for FF-10850 and TPT, respectively. After blood sample collection, mice were euthanized at the corresponding time points, and tumor and bone marrow tissues were collected. Plasma was obtained by centrifuging the blood samples at 800 × g for 15 min at 4 °C. Tumor tissues, placed on ice, were minced into fine pieces with scissors. Bone marrow tissues were harvested from the femur and tibia. After cutting the ends, the bones were placed in a microtube and centrifuged at 1,200 × g for 1 min at 4 °C. Unencapsulated topotecan was immediately separated from the plasma and tissue samples and processed.
For the separation of unencapsulated topotecan in plasma, plasma samples diluted with PBS were ultracentrifuged at 200,000 × g for 1 h at 4 °C to precipitate the liposomes. The supernatants were collected as samples for measuring unencapsulated topotecan in plasma. To separate unencapsulated topotecan in tumor tissues, the tissues were minced as described and homogenized in PBS containing topotecan-d6 as an internal standard (125 mg tissue/mL PBS), with zirconia balls using Micro Smash MS-100R (Tomy Seiko, Tokyo, Japan). The homogenate was then ultracentrifuged at 200,000 × g for 1 h at 4 °C, and the supernatants were collected as samples for measuring unencapsulated topotecan in the tumor tissue. For the separation of unencapsulated topotecan in BM-ISF, a bone marrow tissue suspension was prepared by adding PBS containing topoteacan-d6 to the tissue (25 mg tissue/mL PBS) and suspending it by pipetting. After removing cellular components from the suspension by centrifugation at 1,200 × g for 3 min at 4 °C, the supernatant was collected as the BM-ISF sample. These samples were ultracentrifuged at 200,000 × g for 1 h at 4 °C, and the supernatants were collected to measure unencapsulated topotecan in the BM-ISF.
(§2) To prepare the samples, methanol with 0.1% formic acid plus topotecan-d6 was added to plasma samples, while methanol with 0.1% formic acid was used for tumor and BM-ISF samples. The samples were thoroughly mixed and centrifuged at 11,300 × g for 3 min. The supernatants were added to an equal volume of water with 0.1% formic acid, and the mixture was injected into the liquid chromatographic–triple quadrupole mass spectrometric (LC–MS/MS) system. The ultra-performance liquid chromatography (UPLC) conditions for topotecan analysis were as follows: system, ACQUITY UPLC (Waters, Milford, MA); column, ACQUITY UPLC BEH C18 Column (1.7 µm, 2.1 mm × 50 mm, Waters); mobile phase A, 0.1% formic acid; mobile phase B, methanol with 0.1% formic acid, gradient (initial to 2.0 min, linear increase from 20 to 50% of B; 2.0 to 3.0 min, 95% B, and 3.0 to 4.0 min, 20% B); flow rate, 0.4 mL/min; column temperature, 40 °C. A Triple Quad 5500 (AB Sciex, Framingham, MA) mass spectrometer equipped with Analyst software (AB Sciex) and positive ion electrospray ionization in a multiple reaction monitoring (MRM) mode were used. Quantification was performed using MRM with the transitions of m/z at 422.0 → 377.1 for topotecan and 428.1 → 377.1 for topotecan-d6.
(§3) Pharmacokinetic parameters, including half-life (T1/2), initial concentration at t = 0 (C0), the area under the concentration versus time curves from 0 to infinity (AUCinf), clearance (CL), mean residence time (MRT), and the volume of distribution (Vd) of total and unencapsulated topotecan in plasma, tumor tissue, and BM-ISF were analyzed using noncompartmental analysis with Phoenix WinNonlin version 8.2 pharmacokinetic software (Certara, Princeton, NJ). The AUCs were calculated using the linear up/log down rule.

[4] = Pharmacokinetics of total topotecan in plasma, tumor and BM-ISF of ES-2 tumor bearing mice; format: in vivo, BALB/c nude mice; conditions: single i.v. 2 mg/kg
Description: as §1, §2, §3

[5] = unencapsulated topotecan, BM-ISF, single i.v. 2 mg/kg, ES-2 tumor bearing mice
[6] = unencapsulated topotecan, plasma, single i.v. 2 mg/kg, ES-2 tumor bearing mice
[7] = unencapsulated topotecan, tumor, single i.v. 2 mg/kg, ES-2 tumor bearing mice
[8] = BALB/c nude, mouse, BM-ISF (bone marrow interstitial fluid), iv, BM-ISF, ES-2 tumor bearing mice
[9] = BALB/c nude, mouse, iv, plasma, ES-2 tumor bearing mice
[10] = BALB/c nude, mouse, iv, tumor, ES-2 tumor bearing mice

CC[C@@]1(O)C(=O)OCc2c1cc1n(c2=O)Cc2cc3c(CN(C)C)c(O)ccc3nc2-1 [TPT, Topotecan]
MTD at 5 days [1]: 2 mg/kg/day | human γH2AX levels in the tumor (DNA damage) ([2]; FF-10850 single i.v. 2 mg/kg): comparable DNA damage | time γH2AX levels remained elevated in tumor after each dose [2]: at least 24 h | AUC(0-inf) [3, 5]: 822 ng·h/mL | Cmax [3, 5]: 1700 ng/mL | MRT [3, 5]: 36.4 min | half-life [3, 5]: 43.7 min | AUC(0-inf) [3, 6]: 97.3 ng·h/mL | Cmax [3, 6]: 198 ng/mL | MRT [3, 6]: 34.6 min | half-life [3, 6]: 26.3 min | Cmax [3, 7]: 646 ng/g | MRT [3, 7]: 62.4 min | half-life [3, 7]: 58.3 min | difference between total and unencapsulated topotecan AUCs ([3]; in plasma and each tissue): ≤ 1.5 fold | AUCinf ratio (Tumor/BM-ISF) ([3]; unencapsulated topotecan, single i.v. 2 mg/kg, ES-2 tumor bearing mice): 0.833 | AUCinf [3, 7]: 684 ng∙h/g tissue | AUC(0-inf) [4, 8]: 862 ng·h/mL | Cmax [4, 8]: 1710 ng/mL | MRT [4, 8]: 39.5 min | half-life ([4]; BALB/c nude, mouse, iv, BM-ISF (bone marrow interstitial fluid), ES-2 tumor bearing mice): 41.4 min | AUC(0-inf) [4, 9]: 140 ng·h/mL | C0 [4, 9]: 406 ng/mL | MRT [4, 9]: 23.3 min | Vd [4, 9]: 5.87 L/kg | clearance [4, 9]: 238 mL/min/kg | half-life [4, 9]: 23.9 min | Cmax [4, 10]: 546 ng/g | MRT [4, 10]: 61.2 min | half-life [4, 10]: 55.7 min | AUCinf in BM-ISF relative to that in plasma [4]: 6 times | AUCinf ratio (Tumor/BM-ISF) ([4]; ES-2 tumor bearing mice): 0.675 | AUCinf ([4]; tumor, ES-2 tumor bearing mice): 582 ng∙h/g tissue
